One series relates to washed human platelets. Briefly: Human platelet aggregation assay (thrombin-induced). Format: cell-based. Conditions: 10 μM compound. The text has this:
A classical challenge in target-based drug discovery is moving from biochemical to cellular assay and the essential step of determining if the compounds of interest can perform in a cellular context. After characterization of the compounds in a series of biochemical assay formats, our next step was to assess their activity in a cellular environment. Our previous studies have shown that the interaction of the cytoplasmic domain of integrin αIIbβ3, a key regulator of platelet aggregation, with CIB1, is involved in downstream signaling in platelet activation and aggregation. We sought to determine whether our candidate compounds were inhibiting this interaction by evaluating them for platelet function in a human platelet aggregation assay. We prepared platelet-rich plasma (PRP) and washed the platelets as previously described[44] and then performed a platelet aggregation assay using the washed platelet suspensions (2 × 10^8/platelets/mL) followed by the recording of aggregation traces (see Materials and Methods Section). To induce platelet aggregation, 0.03 U/mL of thrombin, a physiological agonist of platelet activation, was used.
Figure 6 Effect of compounds on human platelet activation. Representative platelet aggregation tracings of washed human platelet suspensions pretreated for 30 min at 37 °C with vehicle (DMSO) or compounds at indicated concentrations followed by activation with thrombin (0.03–0.1 U/mL). Panel (A): NCGC00071855. Panel (B–D): NCGC00351170. Panel (E): CD62P exposure was in the presence of NCGC00351170. Data represents mean ± SEM, n = 4 individual experiments; ns = non significant *P < 0.05, ***P < 0.001, ****P < 0.0001.
Whole blood was drawn by venipuncture from healthy adult volunteers (of both gender and race) with informed consent. Approval was obtained from the institutional review boards of Thomas Jefferson University, according to the Declaration of Helsinki. Blood was collected in acidified citrate dextrose as an anticoagulant. Platelet-rich plasma (PRP) and washed platelets were prepared, as previously described.[44] Platelet aggregation was performed using washed platelet suspensions containing 2 × 10^8 platelets/mL using a Chrono-Log Lumi-Aggregometer (Chrono-Log), as described previously.[11] Aggregation traces were recorded by using Aggrolink software (Chrono-Log). Thrombin-induced P-selectin (CD62P) exposure was performed using Accuri C6 flowcytometer (BD Bioscience) as described previously.[11]
Figure S9: Effect of compounds on human platelet activation. Representative platelet aggregation
tracings of washed human platelet suspensions treated with vehicle (DMSO) or indicated
compounds at 10 μM for 30 minutes at 37 °C followed by activation with thrombin (0.03U/mL).

The target in series [1] is T1, CIB1 and αIIb interaction (GST-CIB1 : F-αIIb peptide) (Homo sapiens, UniProt Q99828).
T1 construct: made in house; host or cells: BL-21 plus RIL cells (E. coli)
T1 sequence (Q99828 1-191): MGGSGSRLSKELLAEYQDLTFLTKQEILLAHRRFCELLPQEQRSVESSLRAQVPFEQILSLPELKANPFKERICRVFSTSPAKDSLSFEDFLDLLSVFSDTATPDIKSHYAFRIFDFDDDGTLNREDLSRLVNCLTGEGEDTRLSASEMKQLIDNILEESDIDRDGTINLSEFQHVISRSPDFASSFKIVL
In words: FP assay, 384-well format (screen). It counts as binding. Set-up: 384-well SCREEN Efficacy (%): concentration or dose not given beside the values. The note with it: F-αIIb peptide; for 384-well SCREEN Confirm?: YES/NO; for IC50: read-out: 384-well SCREEN IC50.

The nature of series [2]: In vitro ADME: PAMPA permeability. For orientation: The PAMPA barrier holds no transporters, so it reflects passive diffusion.
For series [3], the target named is T2, GST-CIB1:F-αIIb interaction (Homo sapiens, UniProt Q99828).
T2 construct: made in house; host or cells: BL-21 plus RIL cells (E. coli)
T2 sequence (Q99828 1-191): T1 sequence (Q99828 1-191)
Briefly: Gel-based (in-gel) binding assay. Conditions: 1 μM GST-CIB1, 400 nM F-αIIb; 60 μM, 1:2, 4-points.

In series [4] the target is T3, GST-CIB1 : F-scrambled peptide (Homo sapiens, UniProt Q99828).
T3 construct: made in house; host or cells: BL-21 plus RIL cells (E. coli)
T3 sequence (Q99828 1-191): T1 sequence (Q99828 1-191)
In words: FP scrambled-peptide counter screen, 384-well format. It counts as binding. Conditions: F-scrambled peptide; for 384-well COUNTERSCREEN Confirm?: *: Curve in opposite direction; for IC50: read-out: 384-well COUNTERSCREEN IC50.

In series [5] the target is T4, CIB1 and αIIb interaction (CIB1-GST : F-αIIb peptide) (Homo sapiens, UniProt Q99828).
T4 construct: made in house; host or cells: BL-21 plus RIL cells (E. coli)
T4 sequence (Q99828 1-191): T1 sequence (Q99828 1-191)
In words: FP assay, 1536-well qHTS format (primary and confirmatory screen). Format: binding. Conditions: for CONFIRMATORY SCREEN Confirm?: YES/NO call; for CONFIRMATORY SCREEN Curve Class: qHTS curve class; for CONFIRMATORY SCREEN Curve Class / Curve Class: negative sign = inhibitory curve; for CONFIRMATORY SCREEN Efficacy (%) / Efficacy (%): negative = inhibition. In general terms: In qHTS, concentration-response curves come from the screen itself.

Series [6] addresses T5, GST-CIB1 : F-αIIb peptide (Homo sapiens, UniProt Q99828).
T5 construct: made in house; host or cells: BL-21 plus RIL cells (E. coli)
T5 sequence (Q99828 1-191): T1 sequence (Q99828 1-191)
Briefly: FP assay in the presence of glutathione (GSH), thiol reactivity. Conditions: for GSH/CIB1 IC50 ratio: ratio of GSH (+) IC50 to GSH (-) IC50; for GSH Assay Result: thiol reactivity call: No change / Active. Format: binding.

A further series has as its target T6, CIB1 and αIIb peptide (Homo sapiens, UniProt Q99828).
T6 sequence (Q99828 1-191): T1 sequence (Q99828 1-191)
In words: Intrinsic tryptophan fluorescence (ITF) assay.

In series [7] the target is T3, GST-CIB1 : F-scrambled peptide. Briefly: FP scrambled-peptide counter screen, 1536-well format. Format: binding. Conditions: scrambled-peptide counterscreen; for COUNTERSCREEN Confirm?: YES/NO call; for COUNTERSCREEN Curve Class: qHTS curve class; for IC50: read-out: COUNTERSCREEN IC50. (In general: A counterscreen serves to expose hits that act by an unwanted route or on another target.)

Series [8] can be described thus: In vitro ADME: solubility. Format: physicochemical. Conditions: read-out: Solubility.
The mark [9] stands for this setting: confirmatory screen, read-out: CONFIRMATORY SCREEN IC50.
Setting [10] is: FP assay in the presence of glutathione (GSH +), read-out: GSH (+) Assay IC50.
The mark [11] stands for this setting: FP assay without glutathione (GSH -), read-out: GSH (-) Assay IC50.
The mark [12] stands for this setting: qHTS primary screen hits, Table S2.

Converted amounts (≈) assume the structure as drawn. Like-named read-outs stand apart in the source and are kept apart here. A value given as a limit tells only on which side of the number the result lay.

For `O=C(c1cccs1)c1no[n+]([O-])c1C(=O)c1cccs1` [NCGC00071855-04], the “Platelet Aggregation Result” value in the series with washed human platelets was “Active”. In series [1], the “384-well SCREEN Efficacy (%)” value was 76%, the “384-well SCREEN Confirm?” value was “YES” and the IC50 came to 7.9 µM. The molecule also yielded a Papp in series [2] of 156 ×10⁻⁶ cm/s. In addition, in [3], the “Active in Gel Assay?” value was “YES”. In series [4], the “384-well COUNTERSCREEN Efficacy (%)” value came out at 50%, the “384-well COUNTERSCREEN Confirm?” value is “YES” and the concentration for half-maximal inhibition (IC50) is 31.6 µM. Further, in series [5] (confirmatory screen), the “CONFIRMATORY SCREEN Confirm?” value is recorded as “YES”, the “CONFIRMATORY SCREEN Curve Class” value is reported as -1.4 and the “CONFIRMATORY SCREEN Efficacy (%)” value is on record as -40%. In addition, the IC50 in series [5] (setting [9]) was found to be 5.6 µM. Further, the IC50 in [6] (setting [10]) was 3.1 µM. Besides, in series [6] (setting [11]), the half-maximal inhibitory concentration (IC50) was 6.3 µM. Further, in [6], the “GSH/CIB1 IC50 ratio” value stood at 0.5 and the “GSH Assay Result” value is “No change”. Moreover, on CIB1 and αIIb peptide, the IC50 is 53.1 µM. Moreover, in series [7], the “COUNTERSCREEN Efficacy (%)” value is on record as -36%, the “COUNTERSCREEN Confirm?” value is on record as “YES”, the “COUNTERSCREEN Curve Class” value is -1.4 and the IC50 turned out to be 25.1 µM. Also, the solubility in series [8] came to 9 µg/mL (≈ 29.4 µM).

In the case of `COc1ccc(CNC(=O)c2nc(S(=O)(=O)Cc3ccccc3)ncc2Cl)cc1.O=C(O)C(F)(F)F` [NCGC00117170-03], in series [1], the “384-well SCREEN Efficacy (%)” value turned out to be 56%, the “384-well SCREEN Confirm?” value was “YES” and the half-maximal inhibitory concentration (IC50) stood at 7.1 µM. In series [3], the “Active in Gel Assay?” value is on record as “YES”. Moreover, in series [4], the “384-well COUNTERSCREEN Efficacy (%)” value was found to be 17%, the “384-well COUNTERSCREEN Confirm?” value is recorded as “YES” and the IC50 was greater than 120 µM. Further, in [5] (confirmatory screen), the “CONFIRMATORY SCREEN Confirm?” value was “YES”, the “CONFIRMATORY SCREEN Curve Class” value is listed as -1.4 and the “CONFIRMATORY SCREEN Efficacy (%)” value was -29%. The half-inhibitory concentration (IC50) in series [5] (setting [9]) came to 12.6 µM. The “Efficacy (%)” value in series [5] (qHTS FP screen hits, Table S2) is listed as -38%. Also, in [5] (qHTS FP screen hits, Table S2, one class per curve where COUNT > 1), the “Curve Class” value is -1.2. For the same molecule, the IC50 in series [5] (qHTS FP screen hits, Table S2, read-out: IC50) stood at 2 µM. In [6] (setting [10]), the IC50 worked out at 4.1 µM. The 50% inhibitory concentration (IC50) in series [6] (setting [11]) was 3.2 µM. Moreover, in [6], the “GSH/CIB1 IC50 ratio” value worked out at 1.3 and the “GSH Assay Result” value is on record as “No change”. The “ITF IC50” value on CIB1 and αIIb peptide was “inactive”. In [7], the “COUNTERSCREEN Efficacy (%)” value is listed as -18%, the “COUNTERSCREEN Confirm?” value is recorded as “YES” and the “COUNTERSCREEN Curve Class” value amounted to 4.

As to `Oc1ccc2ccccc2c1SSc1c(O)ccc2ccccc12` [NCGC00186047-02, IPA-3, reference compound], in [1], the “384-well SCREEN Efficacy (%)” value is recorded as 76%, the “384-well SCREEN Confirm?” value was “YES” and the IC50 worked out at 1.3 µM. Also, in series [3], the “Active in Gel Assay?” value is given as “YES”. In series [4], the “384-well COUNTERSCREEN Efficacy (%)” value was 23%, the “384-well COUNTERSCREEN Confirm?” value is given as “YES” and the IC50 is greater than 120 µM. In [5] (confirmatory screen), the “CONFIRMATORY SCREEN Confirm?” value was “YES”, the “CONFIRMATORY SCREEN Curve Class” value is listed as -1.4 and the “CONFIRMATORY SCREEN Efficacy (%)” value is -74%. In addition, in [5] (setting [9]), the IC50 came out at 2.8 µM. For the same molecule, in series [5] (setting [12]), the “Efficacy (%)” value was -21% and the “Curve Class” value is given as -1.4. The concentration for half-maximal inhibition (IC50) in series [5] (qHTS primary screen hits, Table S2, read-out: IC50) turned out to be 10.3 µM. For the same molecule, the IC50 in series [6] (setting [10]) amounted to 0.326 µM. In addition, the IC50 in [6] (setting [11]) turned out to be 0.232 µM. Moreover, in series [6], the “GSH/CIB1 IC50 ratio” value amounted to 1.4 and the “GSH Assay Result” value is “No change”. Besides, in series [6] (with vs without 10 μM reduced GSH), the “shift in potency in the presence of GSH” value was “no shift”. This molecule also registered an IC50 on CIB1 and αIIb peptide of 16.6 µM. In addition, in [7], the “COUNTERSCREEN Efficacy (%)” value is reported as -34%, the “COUNTERSCREEN Confirm?” value was “YES”, the “COUNTERSCREEN Curve Class” value is on record as -1.2 and the IC50 is 31.6 µM.

One may read the IC50 as the concentration needed to halve the response being measured. One may read the Papp as the rate of passage across a membrane or cell layer, normalised by area and donor concentration. A word on the solubility: it is the dissolved amount per volume that the medium holds.

Source of the values: publication PMC11249646, “Small-Molecule Disruptors of the Interaction between Calcium- and Integrin-Binding Protein 1 and Integrin αIIbβ3 as Novel Antiplatelet Agents” (ACS Pharmacology & Translational Science, 2024).
